# Results published in patent US7700644B2, “Isoflavonoid dimers” (Novogen Research Pty Ltd, priority 2005, dated 2010).
# How the values were obtained:
# DU145 (Prostate) = assay: In vitro cytotoxicity, MTT proliferation assay, DU145; assay type: cell-based, human; conditions: Homo sapiens, DU-145
# Method: (§1) The human pancreatic cancer cell line, HPAC (CRL-2119) was routinely cultured in 1:1 mixture DMEM (Sigma) plus Ham's F12 (Sigma) medium containing HEPES (15 mM), insulin (0.002 mg/ml), transferrin (0.005 mg/ml), hydrocortisone, (40 ng/ml), epidermal growth factor (10 ng/ml). The ovarian cancer cell line CP70 was obtained as a gift from Dr. Gil Mor (Yale University) and cultured in a 1:1 mixture DMEM plus Ham's F12 medium, and SKOV-3 was purchased from ATCC and cultured in McCoy's 5a medium. The breast cancer cell line MDA-MB-468 cultured in Leibovitz's L-15 medium.
# (§2) All cultures were supplemented with 10% FCS(CSL, Australia), penicillin (100 U/ml), streptomycin ([…]), L-glutamine (2 mM) and sodium bicarbonate (1.2 g/L), and cultured at 37° C. in a humidified atmosphere of 5% CO2. All remaining cell lines were purchased from ATCC (Maryland, USA) except where noted.
# (§3) IC50 values were determined for each cell line. Cells were seeded in 96-well plates at an appropriate cell density as determined from growth kinetics analysis. NFFs were cultured for 5 days and RK-13s for 24 hrs in the absence and presence of the test compounds. Cell proliferation was assessed after the addition of 20 μl of 3-4,5 dimethylthiazol-2,5-diphenyl tetrazolium bromide (MTT, 2.5 mg/ml in PBS, Sigma) for 3-4 hrs at 37° C. according to manufacturer's instructions. IC50 values were calculated from semi-log plots of % of control proliferation on the y-axis against log dose on the x-axis.
# MM96L (Melanoma) = assay: In vitro cytotoxicity, MTT proliferation assay, MM96L; assay type: cell-based, human; conditions: Homo sapiens
# Method: as §1, §2, §3
# HT-29 (Colorectal) = assay: In vitro cytotoxicity, MTT proliferation assay, HT-29; assay type: cell-based, human; conditions: Homo sapiens; Colorectal HT-29
# Method: as §1, §2, §3
# A2780 (Ovarian) = assay: In vitro cytotoxicity, MTT proliferation assay, A2780; assay type: cell-based, human; conditions: Homo sapiens
# Method: as §1, §2, §3
# [1] = system: human pancreatic cancer cell line, HPAC (CRL-2119); assay: In vitro cytotoxicity, MTT proliferation assay, CRL-2119; assay type: cell-based; conditions: Homo sapiens, HPAC; Pancreatic CRL-2119
# Method: as §1, §2, §3
# [2] = system: Neonatal foreskin fibroblasts (NFF); assay: Normal cell toxicity, MTT proliferation assay, NFF; assay type: cell-based, human; conditions: Homo sapiens, 120 h; NFF fibroblast, cultured 5 days, MTT
# Method: (§4) Neonatal foreskin fibroblasts (NFF) were a gift from Dr. Peter Parsons (Queensland Institute of Medical Research). RK-13 (rabbit kidney) cells were obtained from Miller Whalley (Macquarie University). Both cell types were cultured in RPMI supplemented with 10% FCS (CSL, Australia), penicillin (100 U/ml), streptomycin ([…]), L-glutamine (2 mM) and sodium bicarbonate (1.2 g/L), and cultured at 37° C. in a humidified atmosphere of 5% CO2.
# as §3
# Duplicate cytotoxicity assays against NFF cells were conducted with dehydroequol (DHE), 4,9-dihydroxy-14,15-dimethoxy-12a-(3′,4′-dimethoxyphenyl)-3,10-dimethyl-2,11-dioxa-(1H,12H)-6b,6c,12a,16b-tetrahydronaphtho[1,2-g]chrysene (2) from Example 6.1 and cisplatin.
# LNCaP (Prostate) = assay: In vitro cytotoxicity, MTT proliferation assay, LNCaP; assay type: cell-based, human; conditions: Homo sapiens
# Method: as §1, §2, §3
# MCF-7 (Breast) = assay: In vitro cytotoxicity, MTT proliferation assay, MCF-7; assay type: cell-based, human; conditions: Homo sapiens, MCF7; Breast MCF-7
# Method: as §1, §2, §3
# NCI-H460 (Lung) = assay: In vitro cytotoxicity, MTT proliferation assay, NCI-H460; assay type: cell-based, human; conditions: Homo sapiens
# Method: as §1, §2, §3
# SKOV-3 (Ovarian) = assay: In vitro cytotoxicity, MTT proliferation assay, SKOV-3; assay type: cell-based, human; conditions: Homo sapiens, SK-OV-3; Ovarian SKOV-3
# Method: as §1, §2, §3
# HTB-138 (Glioma) = assay: In vitro cytotoxicity, MTT proliferation assay, HTB-138; assay type: cell-based, human; conditions: Homo sapiens; Glioma HTB-138
# Method: as §1, §2, §3
# HCT-15 (Colorectal) = assay: In vitro cytotoxicity, MTT proliferation assay, HCT-15; assay type: cell-based, human; conditions: Homo sapiens; Colorectal HCT-15
# Method: as §1, §2, §3
# MM200 (Melanoma) = assay: In vitro cytotoxicity, MTT proliferation assay, MM200; assay type: cell-based, human; conditions: Homo sapiens
# Method: as §1, §2, §3
# [3] = system: ovarian cancer cell line CP70; assay: In vitro cytotoxicity, MTT proliferation assay, CP70; assay type: cell-based, human; conditions: Homo sapiens
# Method: as §1, §2, §3
# NCI-H23 (Lung) = assay: In vitro cytotoxicity, MTT proliferation assay, NCI-H23; assay type: cell-based; conditions: Homo sapiens
# Method: as §1, §2
# as §3, with “NFFs were cultured for 5 days and RK-13s for 24 hrs in the absence and presence of the test compounds.” left out
# PC3 (Prostate) = assay: In vitro cytotoxicity, MTT proliferation assay, PC3; assay type: cell-based, human; conditions: Homo sapiens
# Method: as §1, §2, §3
# RPMI-8226 (Leukemic) = assay: In vitro cytotoxicity, MTT proliferation assay, RPMI-8226; assay type: cell-based; conditions: Homo sapiens; Leukemic RPMI-8226
# Method: as §1, §2
# as §3, with “NFFs were cultured for 5 days and RK-13s for 24 hrs in the absence and presence of the test compounds.” left out
# [4] = system: breast cancer cell line MDA-MB-468; assay: In vitro cytotoxicity, MTT proliferation assay, MDA-MB-468; assay type: cell-based, human; conditions: Homo sapiens; Breast MDA-MB-468
# Method: as §1, §2, §3
# [5] = system: RK-13 (rabbit kidney) cells; assay: Normal cell toxicity, MTT proliferation assay, rabbit kidney cells; assay type: cell-based; conditions: Oryctolagus cuniculus, 24 hrs
# Method: as §4, §3
# [6] = Oral pharmacokinetics in mice; assay type: in vivo, female BALB/c mice; conditions: female, BALB/c, mouse, blood, 50 mg/kg, oral gavage, read-out: Free concentration in blood
# Method: 4,9-Dihydroxy-14,15-dimethoxy-12a-(3′,4′-dimethoxyphenyl)-3,10-dimethyl-2,11-dioxa-(1H,12H)-6b,6c,12a,16b-tetrahydronaphtho[1,2-g]chrysene (2) from Example 6.1 was prepared as homogenous suspensions in 1% CMC (m:v, water). The Cpd. 2 formulation was delivered orally by gavage to female BALB/c mice at a dosage of 50 mg/kg. Three animals were allocated to each time point (15 min, 30 min, 1 hr, 4 hr and 24 hr). At each respective time point, animals were euthanased by cervical dislocation and blood collected. Free Cpd.
# CCRF-CEM (Leukemic) = assay: In vitro cytotoxicity, MTT proliferation assay, CCRF-CEM; assay type: cell-based; conditions: Homo sapiens
# Method: as §1, §2
# as §3, with “NFFs were cultured for 5 days and RK-13s for 24 hrs in the absence and presence of the test compounds.” left out
smiles,measurement,setting,value
"Oc1ccc(C2=Cc3ccc(O)cc3OC2)cc1 [DHE, 3-(4-hydroxyphenyl)chrom-3-en-7-ol]",IC50,DU145 (Prostate),5.95 ± 1.5 µM
same,IC50,MM96L (Melanoma),4.7 µM
same,IC50,HT-29 (Colorectal),50.5 ± 21.9 µM
same,IC50,A2780 (Ovarian),1700 ± 610 nM
same,IC50,[1],56.6 ± 16.8 µM
same,IC50,[2],> 150 µM
same,IC50,LNCaP (Prostate),4.8 ± 3.8 µM
same,IC50,MCF-7 (Breast),21.5 ± 13.2 µM
same,IC50,NCI-H460 (Lung),10.6 ± 3.8 µM
same,IC50,SKOV-3 (Ovarian),21.8 ± 4.65 µM
same,IC50,HTB-138 (Glioma),7.35 ± 0.89 µM
same,IC50,HCT-15 (Colorectal),24.4 ± 12.6 µM
same,IC50,MM200 (Melanoma),4.8 µM
same,IC50,[3],1690 ± 620 nM
same,IC50,NCI-H23 (Lung),8.75 ± 7.2 µM
same,IC50,PC3 (Prostate),9.09 ± 8.12 µM
same,IC50,RPMI-8226 (Leukemic),3.72 ± 0.08 µM
same,IC50,[4],7.9 ± 3.5 µM
same,IC50,[5],> 150 µM
same,concentration at 15 min,[6]; Time 0.25 (15 min),3.3 µM
same,concentration at 30 min,[6]; Time 0.5 (30 min),2900 nM
same,concentration at 1 h,[6]; Time 1 (1 hr),1500 nM
same,concentration at 4 h,[6]; Time 4 (4 hr),1300 nM
same,concentration at 24 h,[6]; Time 24 (24 hr),150 nM
same,IC50,CCRF-CEM (Leukemic),1700 ± 680 nM
